Our source for the viability, T/C and IC50 values is PubChem BioAssay AID1963871 (Molecular Pharmacology Branch, DTP, NCI, 2024).

For orientation: viability, T/C means the result in the treated group divided by that in the control group, in per cent. Broadly, the IC50 is the midpoint of a concentration-inhibition curve.

The test system of this assay is KRAS-mutant PDC multicell tumor spheroid viability. The experiment in a line: Anticancer human tumor 521955-158-R2-J5-PDC patient-derived pancreatic carcinoma cell line growth inhibition [KRAS2]. As to conditions: for viability, T/C: stronger effect = lower value. From the text: Multicellular complex tumor spheroid response to RAS pathway inhibitors in combination with a targeted agents in patient-derived cell lines with oncogenic KRAS variants from multiple cancer types
A high-throughput screen of multi-cell type tumor spheroids was designed to identify active combinations of targeted small molecules and KRAS pathway inhibitors. Complex spheroids include a stromal component modeled by human endothelial cells (HUVEC) and fibroblasts modeled by human mesenchymal stem cells (MSCs). The concentration ranges selected for each drug and investigational agent were based upon clinically achievable concentrations if the clinical Cmax of the agent was known.
Compounds. The drugs and investigational agents: BI-3406 (NSC825286), BAY-293 (NSC824723), batoprotafib (TNO155; NSC825523), sotorasib (AMG 510; NSC818433), MRTX1257 (NSC819558), elimusertib (BAY 1895344; NSC800525), molibresib (GSK525762; NSC774829), temuterkib (LY3214996; NSC803410), venetoclax (NSC766270), alisertib (NSC759677), olaparib (NSC753686), talazoparib (NSC767125), erdafitinib (NSC781556), ipatasertib (NSC767898), cabozantinib (NSC761068), nintedanib (NSC756659), abemaciclib (NSC768073), docetaxel (NSC628503), trametinib (NSC758246), and sapanisertib (NSC764658) were obtained from the National Cancer Institute (NCI) Developmental Therapeutics Program Chemical Repository. The FDA-approved anticancer drug set is available from the Developmental Therapeutics Program. […] The stock solutions were prepared in dimethyl sulfoxide (DMSO, Sigma-Aldrich, St. Louis, MO, cat. D2650) at 800-fold the tested concentration and stored at -70 degrees C prior to their use. All drugs and investigational agents were tested over a range starting from a high concentration at or near the clinical Cmax and decreasing in half-log increments. If the clinical Cmax for an agent had not been determined, the highest concentration tested was 10 microM.
Cell Culture. All cells were maintained in an incubator at 37 degrees C and 5% CO2 with 95% humidity. The PDC lines were cultured according to standard operating procedures established by the NCI PDMR (https://pdmr.cancer.gov/sops/default.htm). Briefly, all PDCs were thawed and cultured in Matrigel-coated flasks prepared with a working solution of 1X Ham's F-12 nutrient mix, without supplementation (Invitrogen, Waltham, MA, cat. 11765054), 100 U/mL penicillin-streptomycin (Invitrogen, cat. 15140122), and 2.5% Matrigel (Corning Inc., Corning, NY, cat. 354248) for the first three passages. All PDCs were cultured in complete DMEM/F-12 media containing advanced DMEM/F-12 (Invitrogen, cat. 12634028), 4.9% defined fetal bovine serum, heat inactivated (HyClone Laboratories Inc., Logan, UT, cat. SH30070.03HI), 389 ng/mL hydrocortisone (Sigma-Aldrich, cat. H4001), 9.7 ng/mL human EGF recombinant protein (Invitrogen, cat. PHG0313), 23.4 microg/mL adenine (Sigma-Aldrich, cat. A2786), 97.3 U/mL penicillin-streptomycin (Invitrogen, cat. 15140122), 1.9 mM L-glutamine (Invitrogen, cat. 25030081), and 9.7 microM Y-27632 dihydrochloride (Tocris Bioscience, Bristol, United Kingdom, cat. 1254). The PDCs were cultured in complete DMEM/F12 media without 9.7 microM Y-27632 dihydrochloride for at least two passages prior to the screen. The established cell line HOP-62 was cultured in RPMI 1640 medium, HEPES (Invitrogen, cat. 22400105) with 10% defined fetal bovine serum (HyClone Laboratories Inc., cat. SH30070.03) and 2 mM L-glutamine (Invitrogen, cat. 25030081). The pooled donor HUVEC were cultured in endothelial cell growth medium 2 (PromoCell, Heidelberg, Germany, cat. C-22011) and the hMSC were cultured in mesenchymal stem cell growth medium 2 (PromoCell, cat. C-28009). For all experiments, HUVEC and hMSC were used at passages </=5, while the malignant cell lines were used at passages </=15. […]

Setting [1] is: compound alone, run of 08/26/2021.
Setting [2] is: compound alone, run of 09/02/2021.
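Also: viability read after seven days of drug exposure.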

Regarding `C=CC(=O)N1CCN(c2nc(=O)n(-c3c(C)ccnc3C(C)C)c3nc(-c4c(O)cccc4F)c(F)cc23)C(C)C1` (centres undefined), the viability, T/C was 105% [middle of 17 runs] (compound 0.1 µM) and 66.7% [middle of 17 runs] (compound 10 µM). The half-inhibitory concentration (IC50) is over 10 µM (compound alone, run of 08/19/2021); over 10 µM under setting [1]; over 10 µM under setting [2].

Take `C=CC(=O)N1CCN(c2nc(OCC3CCCN3C)nc3c2CCN(c2cccc4cccc(C)c24)C3)CC1CC#N` (centres undefined): the IC50 is, setting by setting: under setting [1], 1.71 µM [middle of 5 runs]; under setting [2], 1.82 µM [middle of 6 runs].

For the compound `CNCc1ccccc1-c1csc(C(C)Nc2nc(C)nc3cc(OC)c(OC)cc23)c1` (centres undefined), the viability, T/C runs as follows: (compound 0.1 µM) 93.3% [middle of 17 runs]; (compound 0.316 µM) 93.4% [middle of 17 runs]; (compound 10 µM) 0.16% [middle of 15 runs]. Further, the IC50 was 1.68 µM [middle of 5 runs] under setting [1] and 1.82 µM [middle of 6 runs] under setting [2].

As for `COC(=O)c1ccc2c(C(=Nc3ccc(N(C)C(=O)CN4CCN(C)CC4)cc3)c3ccccc3)c(O)[nH]c2c1`, the viability, T/C is, setting by setting: (compound 0.0316 µM) 102% [middle of 5 runs]; (compound 0.1 µM) 105% [middle of 5 runs]; (compound 10 µM) 0.29% [middle of 5 runs]. Also, the IC50 (curve of compound) is 2.06 µM [middle of 5 runs].

Consider `COc1cc2nc(C)nc(NC(C)c3cc(N)cc(C(F)(F)F)c3)c2cc1OC1CCOC1` (centres undefined), for which, for the setting “compound 0.1 µM”, the viability, T/C is 87.8% [middle of 17 runs]. Moreover, the IC50 is, setting by setting: under setting [1], over 10 µM; under setting [2], over 10 µM.

For the compound `COc1cc2nccc(Oc3ccc(NC(=O)C4(C(=O)Nc5ccc(F)cc5)CC4)cc3)c2cc1OC`, the viability, T/C is 99.7% [middle of 5 runs] (compound 0.0316 µM); 98.8% [middle of 4 runs] (compound 0.1 µM); 103% [middle of 5 runs] (compound 0.316 µM); 109% [middle of 5 runs] (compound 1 µM); 39.7% [middle of 5 runs] (compound 10 µM).

In the case of `CC(=O)OC12COC1CC(O)C1(C)C(=O)C(O)C3=C(C)C(OC(=O)C(O)C(NC(=O)OC(C)(C)C)c4ccccc4)CC(O)(C(OC(=O)c4ccccc4)C21)C3(C)C` (centres undefined) + C=CC(=O)N1CCN(c2nc(=O)n(-c3c(C)ccnc3C(C)C)c3nc(-c4c(O)cccc4F)c(F)cc23)C(C)C1, the IC50 was under 0.01 µM (curve of first compound, second compound 0.1 µM); under 0.01 µM (curve of first compound, second compound 0.316 µM); under 0.01 µM (curve of first compound, second compound 1 µM); under 0.01 µM (curve of first compound, second compound 3.16 µM); under 0.01 µM (curve of first compound, second compound 10 µM). Further, the viability, T/C is, setting by setting: (second compound 0.1 µM, first compound 0.01 µM) 21.5%; (second compound 0.1 µM, first compound 0.0316 µM) 15.5%; (second compound 0.1 µM, first compound 0.1 µM) 15.1%; (second compound 0.1 µM, first compound 0.316 µM) 15.4%; (second compound 0.1 µM, first compound 1 µM) 15.7%; (second compound 0.1 µM, first compound 3.16 µM) 17.4%. Besides, the viability, T/C (second compound 0.316 µM, first compound 0.01 µM) is 22.5%; the viability, T/C (second compound 0.316 µM, first compound 0.0316 µM) was 13.3%; the viability, T/C (second compound 0.316 µM, first compound 0.1 µM) is 11.5%; the viability, T/C (second compound 0.316 µM, first compound 0.316 µM) was 12.6%; the viability, T/C (second compound 0.316 µM, first compound 1 µM) was 13.6%; the viability, T/C (second compound 0.316 µM, first compound 3.16 µM) was 20%. Moreover, the viability, T/C reads like this: (second compound 1 µM, first compound 0.01 µM) 15%; (second compound 1 µM, first compound 0.0316 µM) 10.9%; (second compound 1 µM, first compound 0.1 µM) 10.9%; (second compound 1 µM, first compound 0.316 µM) 12%; (second compound 1 µM, first compound 1 µM) 11.9%; (second compound 1 µM, first compound 3.16 µM) 12.1%. Further, the viability, T/C was 17.5% (second compound 3.16 µM, first compound 0.01 µM); 10.9% (second compound 3.16 µM, first compound 0.0316 µM); 6.69% (second compound 3.16 µM, first compound 0.1 µM); 7.49% (second compound 3.16 µM, first compound 0.316 µM); 11.8% (second compound 3.16 µM, first compound 1 µM); 16.2% (second compound 3.16 µM, first compound 3.16 µM). The viability, T/C (second compound 10 µM, first compound 0.01 µM) is 20.7%; the viability, T/C (second compound 10 µM, first compound 0.0316 µM) was 13.1%; the viability, T/C (second compound 10 µM, first compound 0.1 µM) was 9.39%; the viability, T/C (second compound 10 µM, first compound 0.316 µM) is 9.36%; the viability, T/C (second compound 10 µM, first compound 1 µM) is 12.5%; the viability, T/C (second compound 10 µM, first compound 3.16 µM) is 12.7%.
